Laboratory results taken from patent US11738088B2, “Boryl ethers, carbonates, and cyclic acetals as oxidatively-triggered drug delivery vehicles” (University of Pittsburgh—Of the Commonwealth System of …, priority 2016, dated 2023).

What was measured:
[1] = Oxidative breakdown with urea.H2O2 monitored by 1H NMR; format: physicochemical; conditions: for yield of released product (1H NMR vs internal standard) / half-life: 6-12 equiv H2O2.urea, pH 8.0, CD3CN:D2O 5:1, rt; for half-life: H2O2.urea (6-12 equiv) in CD3CN:D2O 5:1, read-out: t1/2 (substrate consumption); for oxidative breakdown / cargo release (in words): in the presence of H2O2
Method: The oxidative breakdown of compounds 7 and 8 was achieved by subjecting them (˜25 mM) to urea.H2O2 (300 mM) in a mixture of CD3CN and aqueous (D2O) buffer (pH=8.0). The buffer was selected to mimic the experimentally determined pH of mitochondria in consideration of potential applications to mitigating neuronal oxidative stress. Initial experiments were conducted in a 5:1 ratio of CD3CN and buffer (Scheme 3). Reaction progress was monitored by ^1H NMR through following the disappearance of the signals for diastereotopic hydrogens from the methylene group in the starting materials and the appearance of the corresponding enantiotopic hydrogens in butanone. Conversions were calculated by comparison to the internal standard 1,2-dimethoxyethane.

[2] = as above; format: physicochemical; conditions: urea.H2O2 300 mM
[3] = ~25 mM substrate, urea.H2O2 300 mM, CD3CN:buffer 5:1, pH 8.0

## CCC(C)(OCOC)B1OC(C)(C)C(C)(C)O1 (centres unmarked) [Compound 7]
[1]; urea.H2O2 300 mM, CD3CN:buffer 5:1, pH 8.0
  NMR yield of butanone: 79%
[1]; [3]
  time for consumption of 50% of the starting material: less than 2 min
[2]; CD3CN:buffer 1:1
  NMR yield of butanone: 84%
[2]; pH 7.2
  NMR yield of butanone: 81%

## CCC(C)(OC(=O)Oc1ccccc1)B1OC(C)(C)C(C)(C)O1 (centres unmarked) [Compound 8]
[1]; urea.H2O2 300 mM, CD3CN:buffer 5:1
  yield of the desired products: 84%
[1]; [3]
  time for consumption of 50% of the starting material: 22 min
[2]; CD3CN:buffer 1:1
  time for consumption of 50% of the starting material: ≤ 12 min
  yield of the desired products: 84%

## CCC(C)(OCOC1CCCCC1)B1OC(C)(C)C(C)(C)O1 (centres unmarked) [Compound 11]
[1]
  yield of released product (1H NMR vs internal standard): 84%
  half-life: < 2 min
  oxidative breakdown / cargo release (in words): released smoothly

## CCC(C)(OCO[C@@H]1C[C@H](C)CC[C@H]1C(C)C)B1OC(C)(C)C(C)(C)O1 (some centres unmarked) [Compound 13]
[1]
  yield of released product (1H NMR vs internal standard): 85%
  half-life: < 2 min
  oxidative breakdown / cargo release (in words): released smoothly

## CCOC(C)(CCc1ccc(O[Si](C)(C)C(C)(C)C)cc1)B1OC(C)(C)C(C)(C)O1 (centres unmarked) [Compound 15]
[1]
  yield of released product (1H NMR vs internal standard): 89%
  half-life: < 2 min

## CCC(C)(OCC(C)C)B1OC(C)(C)C(C)(C)O1 (centres unmarked) [Compound 17]
[1]
  yield of released product (1H NMR vs internal standard): 89%
  half-life: < 2 min

## CC(C)C(OC1CCCCC1)B1OC(C)(C)C(C)(C)O1 (centres unmarked) [Compound 19]
[1]
  yield of released product (1H NMR vs internal standard): 83%
  half-life: < 2 min

## Cc1c(C)c2c(c(C)c1OC(=O)OC(C)(CCO[Si](C)(C)C(C)(C)C)B1OC(C)(C)C(C)(C)O1)CCC(C)(C)O2 (centres unmarked) [Compound 20]
[1]
  yield of released product (1H NMR vs internal standard): 79%
  half-life: 90 min
  oxidative breakdown / cargo release (in words): somewhat slow

## CCC(C)(OC(=O)c1ccccc1)B1OC(C)(C)C(C)(C)O1 (centres unmarked) [Compound 22]
[1]
  yield of released product (1H NMR vs internal standard): 16%
  half-life: > 936 min

## COc1ccc([C@H]2OCC[C@](C)(B3OC(C)(C)C(C)(C)O3)O2)cc1 [Compound 28]
[1]; H2O2, pH 8.0
  time for consumption of 50% of the starting material: ≤ 1.5 min
  time to complete conversion: < 15 min
  yield of anisaldehyde and 1-hydroxy-3-butanone: 94%

## CC1(B2OC(C)(C)C(C)(C)O2)CCOC(c2ccccc2)(c2ccccc2)O1 (centres unmarked) [Compound 29]
[1]
  oxidative breakdown / cargo release (in words): quickly and efficiently
